Data set [1] can be described thus: Safety index, ratio of IC50 for human HepG2 cells to IC50 for epimastigote stage of Trypanosoma cruzi Y. Particulars: HepG2 cells versus epimastigote stage of Trypanosoma cruzi Y, read-out: Ratio IC50. In kind it is toxicity, cell-based.
Another data set deals with HepG2. Description: Cytotoxicity against human HepG2 cells by MTT assay. In kind it is cell-based.
Data set [2] has as its system Trypanosoma brucei. Briefly: Antimicrobial activity against procyclic stage of Trypanosoma brucei 427 after 24 hrs by MTT assay. The class given is functional, organism-based. To be noted: Trypanosoma brucei, 427, 24 h. Background: Formazan colour is commonly taken as a measure of viable cells.
Data set [3] relates to Trypanosoma brucei. Description: Antimicrobial activity against […] 29-13 after 24 hrs by MTT assay. In kind it is functional, organism-based. To be noted: 29-13, 24 h.
The test system of a further data set is Trypanosoma cruzi. Briefly: Antimicrobial activity against epimastigote stage of Trypanosoma cruzi Y after 72 hrs by MTT assay. In kind it is functional, organism-based.
A short description of data set [4]: Safety index, ratio of IC50 for human HepG2 cells to IC50 for procyclic stage of Trypanosoma brucei 427. In kind it is toxicity, cell-based. Particulars: HepG2 cells versus procyclic stage of Trypanosoma brucei 427, read-out: Ratio IC50.
Data set [5] can be described thus: Safety index, ratio of IC50 for human HepG2 cells to IC50 for […] 29-13. In kind it is toxicity, cell-based. Particulars: read-out: Ratio IC50.

What is called IC50 is the concentration needed to halve the response being measured. High values mean weaker potency, low ones greater potency. As for `Cl.Cl.c1ccc(CNCCNCc2ccccc2)cc1`, the selectivity ratio in data set [1] was found to be 1.4; in data set [4], 20.2; in data set [5], 22.4. Further, the IC50 in the data set on HepG2 stood at 224 µM; with Trypanosoma brucei [2], 11.1 µM; with Trypanosoma brucei [3], 9.99 µM; in the data set with Trypanosoma cruzi it was 160 µM.

`COc1ccc(CNCCNCc2ccc(OC)cc2)cc1`: the results for the selectivity ratio in data set [1], in data set [4] and in data set [5] were 90.9, 120 and 115, respectively. In addition, the IC50 in the data set on HepG2 is 991 µM; in the data set with Trypanosoma brucei [2], 8.25 µM; in the data set on Trypanosoma brucei [3] it was 8.63 µM; in the data set on Trypanosoma cruzi, 10.9 µM.

Consider `Oc1ccccc1CNCCNCc1ccccc1O`, for which the selectivity ratio in data set [1] worked out at 1.36; in data set [4] it was 32.1; in data set [5] it was 28.7. The IC50 was 148 µM in the data set on HepG2, 4.61 µM with Trypanosoma brucei [2], 5.16 µM in the data set on Trypanosoma brucei [3] and 109 µM with Trypanosoma cruzi.

Take `Clc1ccc(CNCCNCc2ccc(Cl)cc2Cl)c(Cl)c1`: the selectivity ratio in data set [1] worked out at 5.45; in data set [4], 22.7; in data set [5], 16.7. For the same compound, the IC50 in the data set on HepG2 was found to be 281 µM; with Trypanosoma brucei [2], 12.3 µM; in the data set with Trypanosoma brucei [3] it was 16.8 µM; with Trypanosoma cruzi, 51.4 µM.

As for `O=[N+]([O-])c1ccc(CNCCNCc2ccc([N+](=O)[O-])cc2)cc1`, the selectivity ratio in data set [1] turned out to be 4.84; in data set [4], 16.1; in data set [5] it was 30.7. The IC50 in the data set on HepG2 stood at 590 µM; in the data set on Trypanosoma brucei [2], 36.6 µM; in the data set on Trypanosoma brucei [3], 19.2 µM; in the data set with Trypanosoma cruzi, 122 µM.

For `O=C(Cn1ccnc1[N+](=O)[O-])NCc1ccccc1` [BENZNIDAZOLE], the selectivity ratio in data set [1] came out at 62.5; in data set [4] it was 10.2; in data set [5], 14.2. Besides, the IC50 worked out at 2130 µM in the data set with HepG2, 208 µM in the data set with Trypanosoma brucei [2], 150 µM in the data set on Trypanosoma brucei [3] and 34 µM in the data set with Trypanosoma cruzi.

`N=C(N)c1ccc(OCCCCCOc2ccc(C(=N)N)cc2)cc1` [PENTAMIDINE]: the selectivity ratio in data set [1] was found to be 34.9; in data set [4], 24.8; in data set [5], 24.8. Further, the half-maximal inhibitory concentration (IC50) stood at 160 µM with HepG2, 6.43 µM in the data set with Trypanosoma brucei [2], 6.43 µM in the data set with Trypanosoma brucei [3] and 4.58 µM with Trypanosoma cruzi.
